Assay results taken from patent US20190071571A1, “COLORING COMPOSITION, DICHROIC DYE COMPOUND, LIGHT ABSORPTION ANISOTROPIC FILM, LAMINATE, AND IMAGE DISPLAY DEVICE” (FUJIFILM Corporation, priority 2016, published 2019).

Experiment: Solubility of dichroic dye compound in cyclopentanone (absorbance method)
Format: physicochemical
Conditions: for Solubility (evaluation grade) / Solubility (wt %): in cyclopentanone; for solubility (in words): solubility to solvent, comparison between examples
Description: The solubilities of the dichroic dye compounds D1 and D4 to D24 used in the examples and the comparative examples were measured as follows.
0.1 g of each dichroic dye compound was added to 2 g of cyclopentanone, and dissolved with ultrasonic waves. Then, 0.2 g of the solution portion was weighed and diluted with 45 g of cyclopentanone. The absorption spectrum of the cyclopentanone solution was measured to obtain an absorbance A (for solubility measurement).
Separately, 0.1 mg of each dichroic dye compound was completely dissolved in 100 g of cyclopentanone, and the absorption spectrum was measured to obtain an absorbance B (having a known concentration).
From data of the obtained two absorbances, the solubility was calculated by the following formula.
The evaluation standards are as follows.
A: The solubility is 2.5 mass % or greater.
B: The solubility is 1.0 mass % or greater and ess than 2.5 mass %.
C: The solubility is less than 1.0 mass %.

Structure (SMILES) | Solubility (evaluation grade) | Solubility (wt %) | solubility (in words)
C=CC(=O)OCCCCOc1ccc(/N=N/c2ccc(/N=N/c3ccc(/N=N/c4ccc(OCCCCOC(=O)C=C)cc4)cc3C)cc2)cc1 [D1] | A (The solubility is 2.5 mass % or greater.) | 4.5 wt % | more excellent solubility
C=CC(=O)OCCCCOc1ccc(/N=N/c2ccc(/N=N/c3ccc(OCCCCOC(=O)C=C)cc3)cc2)cc1 [D4] | A (The solubility is 2.5 mass % or greater.) | 5.7 wt % | –
C=CC(=O)OCCCCOc1ccc(/N=N/c2ccc(/N=N/c3ccc(OCCCCOC(=O)C=C)c(C)c3)cc2)cc1 [D5] | A (The solubility is 2.5 mass % or greater.) | 6.8 wt % | –
C=CC(=O)OCCCCOc1ccc(/N=N/c2ccc(/N=N/c3ccc(OCCCCOC(=O)C=C)cc3C)cc2)cc1 [D6] | A (The solubility is 2.5 mass % or greater.) | 18 wt % | more excellent solubility
C=CC(=O)OCCCCOc1ccc(/N=N/c2ccc(/N=N/c3ccc(OCCCCOC(=O)C=C)c(C(F)(F)F)c3)cc2)cc1 [D7] | A (The solubility is 2.5 mass % or greater.) | 42 wt % | more excellent solubility
C=CC(=O)OCCCCOc1ccc(/N=N/c2ccc(/N=N/c3ccc(/N=N/c4ccc(OCCCCOC(=O)C=C)cc4)cc3OCCOCCOCCOC)cc2)cc1 [D8] | A (The solubility is 2.5 mass % or greater.) | 4.8 wt % | more excellent solubility
C=CC(=O)OCCOc1ccc(/N=N/c2ccc(/N=N/c3ccc(/N=N/c4ccc(OCCOC(=O)C=C)cc4)cc3C)cc2)cc1 [D9] | A (The solubility is 2.5 mass % or greater.) | 4.3 wt % | –
C=CC(=O)OCCCCOc1ccc(/N=N/c2ccc(/N=N/c3ccc(/N=N/c4ccc(OCCCCCCC)cc4)cc3)c(C)c2)cc1 [D10] | A (The solubility is 2.5 mass % or greater.) | 2.8 wt % | –
Cc1cc(/N=N/c2ccc(OCCCCOCC3(C)COC3)cc2)ccc1/N=N/c1ccc(/N=N/c2ccc(OCCCCOCC3(C)COC3)cc2)cc1 [D11] | A (The solubility is 2.5 mass % or greater.) | 3.3 wt % | –
C=CC(=O)OCCCCOc1ccc(/N=N/c2ccc(/N=N/c3ccc(/N=N/c4ccc(OCCCCOC(=O)C=C)cc4)cc3)cc2)cc1 [D12, reference compound] | C (The solubility is less than 1.0 mass %.) | 0.8 wt % | the solubility to a solvent deteriorates
C=CC(=O)OCCCCOc1ccc(/N=N/c2ccc(/N=N/c3ccc(/N=N/c4ccc(OCCCCOC(=O)C=C)cc4)c4ccccc34)cc2)cc1 [D13, reference compound] | B (The solubility is 1.0 mass % or greater and ess than 2.5 mass %.) | 1.5 wt % | –
C=CC(=O)OCCCCOc1ccc(N=Nc2ccc(N=Nc3ccc(N=Nc4ccc(OCCCCOC(=O)C=C)cc4)c(OC)c3)c(OC)c2)cc1 [D14] | A (The solubility is 2.5 mass % or greater.) | 3.1 wt % | –
C=CC(=O)OCCCCOc1ccc(N=Nc2ccc(N=Nc3ccc(N=Nc4ccc(OCCCCOC(=O)C=C)c(OC)c4)cc3C)cc2)cc1OC [D15] | A (The solubility is 2.5 mass % or greater.) | 4.3 wt % | –
C=CC(=O)OCCCCOc1ccc(N=Nc2ccc(N=Nc3ccc(N=Nc4ccc(OCCCCOC(=O)C=C)cc4OC)cc3C)cc2)c(OC)c1 [D16] | A (The solubility is 2.5 mass % or greater.) | 5.0 wt % | more excellent solubility
C=CC(=O)OCCCCOc1ccc(N=Nc2ccc(N=Nc3ccc(N=Nc4ccc(OCCCCOC(=O)C=C)cc4)c(C)c3)c(OC)c2)cc1 [D17] | A (The solubility is 2.5 mass % or greater.) | 3.2 wt % | –
C=CC(=O)OCCCCOc1ccc(N=Nc2ccc(N=Nc3ccc(N=Nc4ccc(N=Nc5ccc(OCCCCOC(=O)C=C)cc5)c(OC)c4)c(OC)c3)cc2)cc1 [D18] | B (The solubility is 1.0 mass % or greater and ess than 2.5 mass %.) | 2.1 wt % | –
C=CC(=O)OCCCCOc1ccc(N=Nc2ccc(N=Nc3ccc(N=Nc4ccc(OCCCCOC(=O)C=C)c(C(F)(F)F)c4)cc3)cc2)cc1 [D19] | A (The solubility is 2.5 mass % or greater.) | >5 wt % | –
C=CC(=O)OCCCCOc1ccc(N=Nc2ccc(N=Nc3ccc(N=Nc4ccc(OCCCCOC(=O)C=C)cc4OCCOC)cc3C)cc2)c(OCCOC)c1 [D20] | A (The solubility is 2.5 mass % or greater.) | >5 wt % | –
C=CC(=O)OCCCCOc1ccc(N=Nc2ccc(N=Nc3ccc(N=Nc4ccc(OCCCCOC(=O)C=C)cc4O)cc3)c(C)c2)cc1 [D21] | B (The solubility is 1.0 mass % or greater and ess than 2.5 mass %.) | 1.5 wt % | –
C=CC(=O)OCCCCOc1ccc(N=Nc2ccc(N=Nc3ccc(N=Nc4ccc(N=Nc5ccc(OCCCCOC(=O)C=C)cc5)cc4)cc3)cc2)cc1 [D22, reference compound] | C (The solubility is less than 1.0 mass %.) | 0.3 wt % | –
C=CC(=O)OCCCCOc1ccc(N=Nc2ccc(N=Nc3ccc(N=Nc4ccc(N=Nc5ccc(N=Nc6ccc(OCCCCOC(=O)C=C)c(C(F)(F)F)c6)c(C)c5)cc4)c(C)c3)cc2)cc1C(F)(F)F [D23] | B (The solubility is 1.0 mass % or greater and ess than 2.5 mass %.) | 1.2 wt % | –
CCCCc1ccc(N=Nc2ccc(N=Nc3c(C)cc(N=Nc4cc(C)c(N=Nc5ccc(N=Nc6ccc(CCCC)cc6)cc5)c(C)c4)cc3C)cc2)cc1 [D24, reference compound] | C (The solubility is less than 1.0 mass %.) | <0.1 wt % | –
